In patent US20120316203A1, “Compositions and Methods for Inhibition of Cancers” (THE OHIO STATE UNIVERSITY RESEARCH FOUNDATION, priority 2009, published 2012):
Entries after “also recorded” stand apart in the source; their conditions may differ. Blank lines part the entries; values can stand above or below the compound they belong to.

Columns and labels:
A2780 and HSMC cells = assay: Viability of cells exposed to stand-alone N-hydroxypyrroline or nitroxide (MTT); assay type: cell-based, human; details: 24 h
Protocol: (§1) Cell viability was determined by a colorimetric assay using MTT. In the mitochondria of living cells, yellow MTT undergoes a reductive conversion to formazan, giving a purple color. Cells, grown to […] confluence in 75-mm flasks, were trypsinized, counted, seeded in 96-well plates with an average population of 7000 cells/well, incubated overnight, and then treated with the DAPs (H-4073, HO-3867, H4318, or HO-4200; […]) for 24 h. All experiments were done using eight replicates and repeated at least three times. Cell viability was expressed as the percentage of MIT viability of untreated cells.
To determine the role of the N-hydroxypyrroline function in the cytotoxicity, we additionally evaluated the effects of 3-CPH (a stand-alone analog of N-hydroxypyrroline) and 3-CP (a nitroxide version 3-CPH) on A27180 and HSMC cells. […] Overall the viability results implicate the diarylidenyl piperidone group in inducing cytotoxicity and the N-hydroxypyrroline group in protecting noncancerous cells.

[1] = compared with cisplatin and curcumin; cited from earlier work
hOSE cells = assay: Cell viability by MTT assay, noncancerous hOSE control cells; assay type: cell-based, human; details: 20 μmol/L
Protocol: (§2) Cell viability was determined by a colorimetric assay using MTT. In the mitochondria of living cells, yellow MTT undergoes a reductive conversion to formazan, producing a purple color. Cells, grown to […] confluence in 75-mm flasks, were trypsinized, counted, seeded in 96-well plates with an average population of 7,000 cells per well, incubated overnight, and then treated with curcumin, H-4073, or HO-3867 for 24 hours. All experiments were done using eight replicates and, repeated at least thrice.

A2780 cells [2] = assay: Intracellular ROS by DCF fluorescence, A2780; assay type: cell-based, human; details: 5 or 10 μM, 12 h
Protocol: (§3) The ROS levels in cells treated with DAPs were determined using H2DCF-DA, a membrane-permeative fluorogenic probe. The acetate and acetoxymethyl ester groups of this probe are enzymatically cleaved inside living cells. The probe can then be oxidized by intracellular oxidants (ROS) to give a product, DCF, which emits a strong, green fluorescence (λex=504 nm; λem=529 nm). The fluorescence intensity is proportional to the level of cellular oxidants. Cells, grown to 80% confluence on 6-mm glass coverslips, were treated with 10 pM H-4073, HO-3867, H-4318, or HO-4200 for 12 h, followed by incubation with H2DCF-DA. The cells were further incubated in the dark for 20 min and washed with protein-free medium, and then fluorescence images were immediately captured with a Nikon Eclipse TE2000-U camera system using excitation/emission at 495/520 nm. The captured images were then analyzed using MetaMorph image analysis software.

[3] = test system: hOSE cells, HSMC, and HAEC; assay: Cytotoxicity of DAPs to noncancerous cells (MTT); assay type: cell-based, human
Protocol: as §1

A2780 cells [4] = assay: Cell proliferation by clonogenic assay; assay type: cell-based, human; details: 24 hours treatment, 7 days growth
Protocol: Cell survival was assessed by clonogenic assay. Cells at […] confluence were trypsinized, rinsed, seeded onto 60-mm dishes (5×10^4 cells per dish), grown for 24 hours at 37° C., and treated afterward with H-4073 or HO-3867 for 24 hours. Nontreated cells served as controls. After treatment, the cells were washed twice with PBS, trypsinized, counted, and plated in 60-mm dishes in triplicate and incubated for an additional 7 days. The colonies were then stained with crystal violet (in ethyl alcohol) and counted using an automated colony counter (ColCount, Oxford Optronix). Each experiment was repeated at least five times.

[5] = Superoxide radical-scavenging by EPR (xanthine/xanthine oxidase, DEPMPO competition); details: 100 μM compound versus 1 mM DEPMPO
Protocol: Electron paramagnetic resonance (EPR) spectroscopy was used to quantitatively determine the relative superoxide-scavenging ability of the DAPs in comparison with DEPMPO, a known superoxide scavenger. Superoxide radicals were generated using an aerated solution of PBS (pH 7.4) containing xanthine (0.2 mM), xanthine oxidase (0.02 U/ml), and diethylenetriamine pentaacetic acid (0.1 mM). The superoxide radicals (O2^−) generated by the xanhine-xanthine oxidase reaction were reacted with DEPMPO (1 mM) to form a paramagnetic adduct (DEPMPO-OOH), which was detected using X-band (9.8 GHz) EPR spectroscopy. In separate experimental groups, […], or SOD (500 U/ml) was added to the reaction mixture. […] The generation of the DEPMPO-OOH adduct was measured at 10 min after initiation of the reaction.
Both N-hydroxypyrroline and nitroxide have antioxidant properties including SOD- and catalase-mimetic activity. Therefore, we determined the superoxide radical-scavenging ability of DAPs using a competitive reaction in the presence of DEPMPO. Superoxide radicals were generated using an aerobic solution of xanthine and xanthine oxidase and detected as DEPMPO-OOH adduct by EPR spectroscopy. The DAP compounds (100 μM) were used to compete with 1 mM DEPMPO for the superoxide ions. SOD (4.2 μM) was used as a positive control.

[6] = test system: A2780, A2780R, MCF-7, HCT-116, PC-3, HepG2, A549, and SCC4 human cancer cell lines; assay: Cytotoxicity of DAPs to cancer cells (MTT); assay type: cell-based; details: 10 μM, 24 h
Protocol: as §1

HSMC = assay: Intracellular ROS by DCF fluorescence, HSMC; assay type: cell-based, human; details: 10 μM, 12 h
Protocol: as §3, with “Cells, grown to 80% confluence on 6-mm glass coverslips, were treated with 10 pM H-4073, HO-3867, H-4318, or HO-4200 for 12 h, followed by incubation with H2DCF-DA.” left out

[7] = test system: A2780 and other cancer cells; assay: Metabolic conversion to nitroxide in cancer cells (EPR); assay type: in vitro ADME, human; details: 37° C., EPR
Excerpt: The N-hydroxypyrroline (—NOH) moiety is capable of undergoing a reversible one-electron oxidation to its nitroxide form (—NO; FIG. 9A), which is paramagnetic and detectable by EPR spectroscopy.

A2780 cells [8] = assay: Cell viability by MTT assay, A2780 cells; assay type: cell-based, human; details: 24 hours, dose series
Protocol: as §2

[9] = test system: A2780R, PA-1, SKOV3, OV4, and OVCAR3 human ovarian cancer cell lines; assay: Cell viability by MTT assay, other ovarian cancer cell lines; assay type: cell-based; details: 10 μmol/L; 24 h
Protocol: as §2

Compound: CC1(C)CC(C(N)=O)C(C)(C)N1[O] (stereo not shown) [3-CP, 3-carbamoyl proxyl]
cell viability of A2780 and HSMC cells (A2780 and HSMC cells): did not show any significant effect

Compound: CC1(C)CC(C(N)=O)C(C)(C)N1O (stereo not shown) [3-CPH, N-hydroxy-3-carbamoyl proxyl]
cell viability of A2780 and HSMC cells (A2780 and HSMC cells): did not show any significant effect

Compound: O=C1/C(=C/c2ccccc2F)CNC/C1=C\c1ccccc1F [DAP-F(o)]
IC50 [1]: lower than both cisplatin and curcumin

intracellular ROS generation (DCF fluorescence) in HSMC (HSMC): induced significant ROS generation
EPR spectrum (nitroxide signal) after incubation with A2780 cells [7]: did not show any EPR signal
Compound: O=C1/C(=C/c2ccc(F)cc2)CNC/C1=C\c1ccc(F)cc1 [H-4073, (3E,5E)-3,5-Bis(4-fluorobenzylidene)piperidin-4-one]
cytotoxicity to hOSE cells (hOSE cells): significant cytotoxicity
intracellular ROS generation (DCF fluorescence) in A2780 cells (A2780 cells [2]): induced significant ROS generation
viability of hOSE cells ([3]; same dose for both compounds): significantly reduced
number of colonies (colony-forming ability) (A2780 cells [4]): dose-dependent reduction in the number of colonies
effect on the superoxide adduct level [5]: did not show any significant effect
cell viability of human cancer cell lines [6]: substantial loss of cell viability; also recorded: higher toxicity compared to HO-3867 or HO-4200
cytotoxicity, viability of A2780 cells (A2780 cells [8]): significantly higher toxicity when compared with curcumin
cytotoxicity in other human ovarian cancer cell lines [9]: equally and significantly toxic

intracellular ROS generation (DCF fluorescence) in HSMC (HSMC): induced significant ROS generation
EPR spectrum (nitroxide signal) after incubation with A2780 cells [7]: did not show any EPR signal
Compound: O=C1/C(=C/c2ccc(C(F)(F)F)cc2)CNC/C1=C\c1ccc(C(F)(F)F)cc1 [H-4318, (3E,5E)-3,5-bis(4-trifluoromethylbenzylidene)piperidin-4-one]
intracellular ROS generation (DCF fluorescence) in A2780 cells (A2780 cells [2]): induced significant ROS generation
effect on the superoxide adduct level [5]: did not show any significant effect
cell viability of human cancer cell lines [6]: substantial loss of cell viability; also recorded: higher toxicity compared to HO-3867 or HO-4200

amounts of ROS in HSMC compared to A2780 cells (HSMC): significantly lower amounts of ROS
intracellular ROS generation (DCF fluorescence) in HSMC (HSMC): induced significant ROS generation
Compound: CC1(C)C=C(CN2C/C(=C\c3ccc(C(F)(F)F)cc3)C(=O)/C(=C/c3ccc(C(F)(F)F)cc3)C2)C(C)(C)N1O [HO-4200, 1-[(1-oxyl-2,2,5,5-tetramethyl-2,5-dihydro-1H-pyrrol-3-yl)-methyl]-(3E,5E)-3,5-bis(4-trifluoromethylbenzylidene)piperidin-4-one]
intracellular ROS generation (DCF fluorescence) in A2780 cells (A2780 cells [2]): induced significant ROS generation
cell viability of noncancerous (healthy) human cell lines ([3]; 10 NM, 24-h incubation): significantly less toxic
diminution of the DEPMPO-OOH concentration [5]: −50%
cell viability of human cancer cell lines [6]: substantial loss of cell viability

Compound: COc1cc(/C=C/C(=O)CC(=O)/C=C/c2ccc(O)c(OC)c2)ccc1O [curcumin, Curcumin, reference compound]
cytotoxicity, viability of A2780 cells (A2780 cells [8]): dose-dependent cytotoxicity
